Test results taken from patent US11684598B2, “Use of cannabinoids in the treatment of epilepsy” (priority 2015, dated 2023).

Key:
[1] = system: D. discoideum cell growth; assay: D. discoideum growth assay; type: cell-based, Dictyostelium discoideum
Method: Wild type (A×2) D. discoideum cells were grown in shaking culture (in HL5 medium) for two days prior to growth assays. Cells (9900 in 495 μl of media) were added to each well of a 24 well plate and 5 μl of cannabinoid in DMSO (or DMSO only) was added to each well to achieve each described concentration (1% final DMSO concentration), and cells were maintained at 22° C. Cells were counted at 72 hours, and then every 24 hours. Quadruplicate repeats were used for each concentration.

[2] = system: D. discoideum development; assay: D. discoideum development assay; type: cell-based, Dictyostelium discoideum; conditions: 20 μM, 24 h on nitrocellulose filter
Method: Wild type (A×2) D. discoideum cells were grown in HL5 shaking culture for two days prior to development assay. Cells were washed in phosphate buffer (KK2; 20 mM Potassium phosphate buffer, pH 6.1), and 1×10^7 cells were spread onto nitrocellulose filters (Millipore, Cork). Absorbent pads (Millipore, Cork), divided into quarters, were placed in 2 ml culture dishes and soaked with 0.5 ml KK2 containing the cannabinoids at 20 μM. 1 mM Valproic acid was used as a positive control while KK2 containing 1% DMSO was used as a solvent only control. Nitrocellulose filters containing cells were quartered and place upon absorbent pads and maintained in a humid environment at 22° C. for 24 h. Fruiting body morphology was recorded using a dissection microscope and camera.

[3] = system: D. discoideum growth upon R. planticola bacterial plates; assay: Bacterial plate screen; type: cell-based, Dictyostelium discoideum; conditions: CBDA 12.3 μM, CBD 16.7 μM; 4 days
Method: Heat killed (75° C. for 30 minutes) R. planticola was spread onto the plates and ˜50 wild-type A×2 cells were added and left to grow at 22° C. Plates were checked regularly for colonies.

[4] = system: seizures; conditions: 200 mg/day pure CBD, four adult patients; cited from earlier work

For `C=C(C)[C@@H]1CCC(C)=C[C@H]1c1c(O)cc(CCCCC)cc1O` [CBD, Cannabidiol], the IC50 ([1]; Dictyostelium discoideum, secondary plot of cell density at 144 hours, read-out: growth inhibitory constant (IC50)) was 1630 nM, the concentration blocking growth ([1]; growth over one week) was 20 µM and the “concentration significantly inhibiting cell growth (P<0.05)” value ([1]; growth over one week) was 0.5 µM. The “effect on development (fruiting body morphology)” value [2] was “able to aggregate and develop to form mature fruiting bodies”, the “cell survival (colony number) compared to control (solvent only)” value [3] was “No difference in colony number” and the seizure freedom [4] was “two of the four patients became seizure free”.
